The record followed here is article PMC3744530, “CTA095, a Novel Etk and Src Dual Inhibitor, Induces Apoptosis in Prostate Cancer Cells and Overcomes Resistance to Src Inhibitors” (PLoS ONE, 2013).

Test [1] addresses T1, Etk (Homo sapiens, UniProt P51813).
T1 construct: purchased Millipore Inc (Dundee, UK)
T1 sequence (P51813 1-675): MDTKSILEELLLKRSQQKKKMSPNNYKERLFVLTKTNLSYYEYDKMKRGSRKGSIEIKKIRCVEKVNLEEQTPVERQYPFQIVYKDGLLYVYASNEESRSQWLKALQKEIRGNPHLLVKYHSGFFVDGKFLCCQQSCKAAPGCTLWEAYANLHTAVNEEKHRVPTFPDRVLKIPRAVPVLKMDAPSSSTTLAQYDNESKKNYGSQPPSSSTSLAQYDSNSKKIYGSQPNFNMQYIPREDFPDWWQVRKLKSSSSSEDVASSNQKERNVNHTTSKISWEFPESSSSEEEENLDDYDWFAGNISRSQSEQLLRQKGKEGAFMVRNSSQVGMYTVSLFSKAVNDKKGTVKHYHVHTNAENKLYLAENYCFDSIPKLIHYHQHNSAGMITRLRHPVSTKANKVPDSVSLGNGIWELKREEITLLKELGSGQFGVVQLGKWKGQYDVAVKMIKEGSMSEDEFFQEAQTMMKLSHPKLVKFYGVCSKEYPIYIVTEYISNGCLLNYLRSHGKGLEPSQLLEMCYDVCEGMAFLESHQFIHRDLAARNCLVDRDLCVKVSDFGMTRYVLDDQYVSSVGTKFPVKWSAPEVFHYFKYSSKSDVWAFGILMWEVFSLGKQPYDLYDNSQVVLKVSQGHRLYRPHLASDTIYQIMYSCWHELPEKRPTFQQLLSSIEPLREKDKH
Kind of test: Etk autophosphorylation assay (in vitro kinase assay). It is filed as biochemical. The note with it: purified Etk, 33P-ATP, 30 min. Here is the method: Etk autophosphorylation activity was measured by an in vitro kinase assay. Briefly, purified Etk (100 ng) was mixed with CTA095 in the kinase assay buffer (20 mM Hepes pH 7.55, 10 mM MgCl2, 10 mM MnCl2, 1 mM DTT, 500 μM Na3VO4). The cold ATP (5 µM) and hot r-^33P-ATP (5 µCi) were added to the mixture and the kinase reaction was performed at 30°C for 30 min. The reactions were terminated with a 4X SDS-PAGE sample buffer, and then loaded onto an 8% SDS-polyacrylamide gel for electrophoresis. The gel was vacuum dried and the ETK auto kinase activity was analyzed with a phosphoimager (Biorad).
The Btk family of non-receptor tyrosine kinases is characterized by the presence of an autophosphorylation site within the non-catalytic Src homology 3 (SH3) domain. Thus, it was also important to determine the ability of CTA095 to inhibit Etk autophosphorylation. Therefore, an in vitro Etk autophosphorylation assay was established in which purified Etk was mixed with CTA095 in the presence of ^33P-ATP. After 30 min, the reaction was terminated, and the samples were loaded onto an SDS-polyacrylamide gel for electrophoresis. After drying, the gel was analyzed with a phosphoimager.

The subject of test [2] is PC3 cells. In words: MTT growth inhibition assay. It counts as cell-based, human. Here is the method:
Cells were seeded in 96-well plates and cultured overnight, followed by treatment with 0.1% DMSO, as the vehicle control, and CTA095, at the indicated concentrations for 72 h. Growth inhibition was measured using a 3-(4,5-Dimethylthiazol-2-yl)-2,5-diphenyltetrazolium bromide (MTT) assay (Roche Diagnostic, Mannheim, Germany).
Figure 5 Growth Inhibition of CTA095 to LNCAP, CWR22Rv1, PC3 prostate cancer and normal prostate (RWPE1) cells. Cells were seeded at 5,000 cells/well in 96-well plate overnight and treated with CTA095 at the indicated concentrations. The cell viability was measured using MTT assay after 72 h. dots, mean; bars, standard deviation, n = 3.
Figure 9 CTA095 as a chemo sensitizer. Growth Inhibition of CTA095 and in combination with 10 μM chloroquine (CQ), or 2 ng/ml paclitaxel (PTX) to PC3 human prostate cancer cells. Cells were seeded at 5,000 cells/well in 96-well plate overnight and pretreated with the corresponding co-treatments for 1h, then treated with 2.5 μM CTA095. The cell viability was measured using MTT assay after 72 h. Columns, mean; bars, standard deviation, n = 3.
In general terms: Formazan colour is commonly taken as a measure of viable cells.

Test [3] deals with PC3 cells stably transfected with GFP-LC3. Kind of test: Autophagy assay (GFP-LC3 puncta, LC3 immunoblot). It is filed as cell-based, human. The conditions noted are these: PC3 GFP-LC3, 5 μM, 24 h. The procedure:
PC3 cells were stably transfected with GFP-LC3 [16]. Cells were grown in a 6-well plate to 50% confluence and treated with 5 μM CTA095 for 24 h. Autophagy was visualized by GFP-LC3 “puncta” and immunoblot of Endogenous LC3 isoforms.
Figure 6 Induction of autophagy in PC3 cells by CTA095. Cells were grown in 6-well plate to 50% confluence and treated with CTA095. Autophagy was visualized by GFP-LC3 “puncta” (A) and immunoblot of Endogenous LC3 isoforms (B). All experiments were carried out 24 h after treatment.
On the technique in general: A western blot detects proteins with antibodies after separation by electrophoresis.

Test [4] relates to PC3-AZD20 cells. Kind of test: Annexin-V FITC apoptosis in Src inhibitor resistant cells. It counts as cell-based, human. The conditions noted are these: 10 μM. Here is the method: (§1) PC3-AZD20 cells were seeded at 10^6 cells/well in 6 well plates overnight. The cells were treated with AZD0530 or CTA095 at 10 μM. Apoptosis was analyzed using Annexin-V FITC apoptosis detection kit. The mRNA levels of Myc and BCL2 were measured using real-time PCR. pEtk, Etk, pSrc, Src, pStat3, Stat3, Myc and BCL2 levels were measured using the corresponding antibodies through a Western blot.
(§2) Figure 12 CTA095 induces apoptosis in Src inhibitor resistant prostate cancer cells through Myc and BCL2 inhibition. PC3-AZD20 (PC3 cell resistant to 20 μM AZD0530) cells were seeded at 10^6 cells/well in 6 well plates overnight. The cells were treated with AZD0530 or CTA095 at 10 μM. Apoptosis was analyzed using Annexin-V FITC apoptosis detection kit (A). The mRNA levels of Myc and BCL2 were measured using real-time PCR (B). pEtk, Etk, pSrc, Src, pStat3, Stat3, Myc and BCL2 levels were measured using the corresponding antibodies through Western blot (C). Columns, mean; bars, standard deviation, n = 3.

The test system of test [5] is Myc mRNA in PC3-AZD20 cells. Kind of test: Real-time PCR of Myc mRNA. The note with it: PC3-AZD20, 10 μM, RT-PCR. It is filed as cell-based, human. The procedure:
as §1, §2
(In general: Quantitative PCR measures a nucleic acid by following its amplification.)

Each structure is given as a SMILES string.

In general, IC50 refers to the concentration at which inhibition is half-maximal. As for `O=c1[nH]c2cc3nc(-c4ccc5oc6ccccc6c5c4)n(CCCN4CCCCC4)c3cc2nc1-c1ccccc1` [CTA095, 2-(dibenzo[b,d]furan-2-yl)-7-phenyl-1-(3-(piperidin-1-yl)propyl)-1H-imidazo[4,5-g]quinoxalin-6(5H)-one], the Etk autophosphorylation result in test [1] is “inhibit Etk autophosphorylation in a concentration dependent manner”. Besides, the IC50 in test [2] (Homo sapiens, PC-3, PC3, MTT, 72 h) came to 4.5 µM. Besides, the “growth inhibition in combination with chloroquine (CQ)” value in test [2] (PC3, 2.5 μM CTA095 + CQ 10 μM, MTT, 72 h) was “synergistic effect”. In addition, the “growth inhibition in combination with paclitaxel (PTX)” value in test [2] (PC3, 2.5 μM CTA095 + PTX 2 ng/ml, MTT, 72 h) was “synergistic effect”. The “combination with autophagy inducer RPM” value in test [2] (prostate cancer cells, co-treatment with rapamycin (RPM)) is listed as “synergizes”. For the same compound, the “autophagy (GFP-LC3 puncta)” value in test [3] was “extensive distinct “puncta” autophagosome morphology”. In addition, the “apoptosis in PC3-AZD20 cells” value in test [4] is on record as “Massive apoptosis was induced”. In addition, the “Myc mRNA level” value in test [5] is reported as “significantly down regulated”.
